According to US10189845B2, “4,6-substituted-pyrazolo[1,5-a]pyrazines as janus kinase inhibitors” (ARRAY BIOPHARMA INC., priority 2014, dated 2019):
Counter-ions that a name gives are not always drawn. Like-named read-outs stand apart in the source and are kept apart here.

Tests used:
Type in all cases: biochemical
Human Tyk2 kinase domain = Human Tyk2 kinase domain (Homo sapiens (Human), UniProt P29597); experiment: Tyk2 Inhibition Assay (Example A, Omnia kinase fluorescence peptide substrate assay); conditions: TYK2 Enzyme IC50 1 mM ATP, averaged IC50 ranges
Procedure, shortened: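 IC50 values come from a 4-parameter logistic fit of percent-of-control data, with compounds at 2% final DMSO. Reactions held 1 nM His-tag-cleaved Tyk2 (aa 886–1187), 8 μM Omnia Y12 peptide and 1 mM ATP in pH 7.4 HEPES buffer with 10 mM MgCl2, Triton X-100 and DTT. Sox fluorescence (360/485 nm) was monitored kinetically over 45 min.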

JAK3 = JAK3 (Homo sapiens (Human), UniProt P52333); experiment: JAK3 Inhibition Assay (Example D, Omnia kinase fluorescence peptide substrate assay)
Procedure, shortened: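 Omnia Sox-peptide kinetic read (ex 360 nm, em 485 nm, every 50 s over 45 min) tracked phosphorylation of 10 μM Y7 peptide by 2 nM recombinant JAK3 at 1 mM ATP. Buffer: 25 mM HEPES pH 7.4, 10 mM MgCl2, 0.01% Triton X-100, 1 mM DTT, with 2% DMSO final.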

JAK1 = JAK1 (Homo sapiens (Human), UniProt P23458); experiment: JAK1 Inhibition Assay (Example B, Omnia kinase fluorescence peptide substrate assay)
Procedure, shortened: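 Kinetic fluorescence read (360 nm excitation, 485 nm emission, every 50 s over 45 min) of Omnia Y12 peptide (8 μM) phosphorylation by 12.5 nM human JAK1 at 1 mM ATP. Buffer: HEPES pH 7.4, MgCl2, Triton X-100, DTT; 2% DMSO. IC50 = concentration giving 50 POC on logistic curve.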

JAK2 = JAK2 (Homo sapiens (Human), UniProt O60674); experiment: JAK2 Inhibition Assay (Example C, Omnia kinase fluorescence peptide substrate assay); conditions: JAK2 Enzyme IC50 1 mM ATP, averaged IC50 ranges
Procedure, shortened: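 Kinetic fluorescence read of Omnia Y7 peptide (10 μM) phosphorylation, ex 360/em 485 nm every 50 s over 45 min, by 4 nM JAK2 at 1 mM ATP. Buffer 25 mM HEPES pH 7.4, 10 mM MgCl2, 0.01% Triton X-100, 1 mM DTT; final DMSO 2%. Percent-of-control values fitted by 4-parameter logistic for IC50.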

[1] = JAK1 Enzyme IC50 1 mM ATP, 1 mM ATP, averaged IC50 ranges

Sequence of JAK3 (P52333 whole entry): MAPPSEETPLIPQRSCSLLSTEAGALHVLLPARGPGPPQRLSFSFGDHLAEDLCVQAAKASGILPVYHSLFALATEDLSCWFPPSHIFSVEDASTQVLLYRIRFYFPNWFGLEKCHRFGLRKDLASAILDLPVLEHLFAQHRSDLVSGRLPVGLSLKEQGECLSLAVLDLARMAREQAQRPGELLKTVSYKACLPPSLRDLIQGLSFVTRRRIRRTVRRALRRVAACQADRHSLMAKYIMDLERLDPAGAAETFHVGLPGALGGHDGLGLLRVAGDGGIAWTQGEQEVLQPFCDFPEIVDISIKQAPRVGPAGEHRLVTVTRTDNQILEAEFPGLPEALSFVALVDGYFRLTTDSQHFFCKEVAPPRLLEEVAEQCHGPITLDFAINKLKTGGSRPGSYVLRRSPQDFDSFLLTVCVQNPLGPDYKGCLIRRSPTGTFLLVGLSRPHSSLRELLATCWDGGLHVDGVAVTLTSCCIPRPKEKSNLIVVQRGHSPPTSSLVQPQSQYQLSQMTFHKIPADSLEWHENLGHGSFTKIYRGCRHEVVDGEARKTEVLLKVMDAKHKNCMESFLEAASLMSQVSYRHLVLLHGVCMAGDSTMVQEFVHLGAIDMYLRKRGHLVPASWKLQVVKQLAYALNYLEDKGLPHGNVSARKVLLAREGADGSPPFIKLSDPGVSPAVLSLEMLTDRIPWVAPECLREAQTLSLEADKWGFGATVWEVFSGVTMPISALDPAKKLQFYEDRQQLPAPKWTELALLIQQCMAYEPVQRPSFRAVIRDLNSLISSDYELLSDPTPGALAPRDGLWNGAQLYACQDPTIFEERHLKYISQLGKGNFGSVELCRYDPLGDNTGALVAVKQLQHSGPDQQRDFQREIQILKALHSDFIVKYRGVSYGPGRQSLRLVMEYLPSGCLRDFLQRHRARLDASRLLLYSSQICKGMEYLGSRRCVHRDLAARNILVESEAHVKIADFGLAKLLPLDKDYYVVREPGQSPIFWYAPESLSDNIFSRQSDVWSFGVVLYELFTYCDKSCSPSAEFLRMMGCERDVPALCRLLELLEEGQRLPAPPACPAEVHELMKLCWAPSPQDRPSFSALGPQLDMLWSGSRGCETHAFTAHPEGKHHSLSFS
Sequence of JAK2 (O60674 whole entry): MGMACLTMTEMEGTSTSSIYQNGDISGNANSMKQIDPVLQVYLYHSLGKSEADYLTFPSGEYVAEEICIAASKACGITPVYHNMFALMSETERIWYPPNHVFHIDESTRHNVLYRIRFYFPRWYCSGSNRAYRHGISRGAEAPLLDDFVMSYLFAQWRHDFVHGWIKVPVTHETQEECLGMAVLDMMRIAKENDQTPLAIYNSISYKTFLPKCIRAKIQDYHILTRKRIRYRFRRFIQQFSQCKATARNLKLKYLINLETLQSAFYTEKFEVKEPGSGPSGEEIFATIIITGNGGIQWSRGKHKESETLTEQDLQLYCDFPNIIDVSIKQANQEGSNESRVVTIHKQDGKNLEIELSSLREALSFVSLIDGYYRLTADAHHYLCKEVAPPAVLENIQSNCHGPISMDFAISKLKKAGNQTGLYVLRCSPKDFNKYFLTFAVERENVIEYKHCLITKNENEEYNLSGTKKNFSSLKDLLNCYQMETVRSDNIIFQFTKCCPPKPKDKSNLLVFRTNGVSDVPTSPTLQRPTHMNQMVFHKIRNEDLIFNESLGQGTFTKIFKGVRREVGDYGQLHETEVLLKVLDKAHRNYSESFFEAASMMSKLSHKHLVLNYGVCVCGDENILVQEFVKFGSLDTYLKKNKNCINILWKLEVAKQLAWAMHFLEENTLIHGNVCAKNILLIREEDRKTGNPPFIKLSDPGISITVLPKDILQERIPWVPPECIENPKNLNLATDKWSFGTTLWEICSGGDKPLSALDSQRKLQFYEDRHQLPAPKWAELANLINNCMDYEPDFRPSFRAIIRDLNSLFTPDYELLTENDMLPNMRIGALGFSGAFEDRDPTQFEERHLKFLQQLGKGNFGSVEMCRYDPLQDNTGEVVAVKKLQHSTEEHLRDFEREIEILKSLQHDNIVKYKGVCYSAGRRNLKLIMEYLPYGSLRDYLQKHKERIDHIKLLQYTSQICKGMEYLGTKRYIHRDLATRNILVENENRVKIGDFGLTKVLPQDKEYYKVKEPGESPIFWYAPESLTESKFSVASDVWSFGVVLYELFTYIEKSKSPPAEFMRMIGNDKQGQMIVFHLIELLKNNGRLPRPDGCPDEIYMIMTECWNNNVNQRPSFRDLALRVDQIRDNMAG
Sequence of JAK1 (P23458 whole entry): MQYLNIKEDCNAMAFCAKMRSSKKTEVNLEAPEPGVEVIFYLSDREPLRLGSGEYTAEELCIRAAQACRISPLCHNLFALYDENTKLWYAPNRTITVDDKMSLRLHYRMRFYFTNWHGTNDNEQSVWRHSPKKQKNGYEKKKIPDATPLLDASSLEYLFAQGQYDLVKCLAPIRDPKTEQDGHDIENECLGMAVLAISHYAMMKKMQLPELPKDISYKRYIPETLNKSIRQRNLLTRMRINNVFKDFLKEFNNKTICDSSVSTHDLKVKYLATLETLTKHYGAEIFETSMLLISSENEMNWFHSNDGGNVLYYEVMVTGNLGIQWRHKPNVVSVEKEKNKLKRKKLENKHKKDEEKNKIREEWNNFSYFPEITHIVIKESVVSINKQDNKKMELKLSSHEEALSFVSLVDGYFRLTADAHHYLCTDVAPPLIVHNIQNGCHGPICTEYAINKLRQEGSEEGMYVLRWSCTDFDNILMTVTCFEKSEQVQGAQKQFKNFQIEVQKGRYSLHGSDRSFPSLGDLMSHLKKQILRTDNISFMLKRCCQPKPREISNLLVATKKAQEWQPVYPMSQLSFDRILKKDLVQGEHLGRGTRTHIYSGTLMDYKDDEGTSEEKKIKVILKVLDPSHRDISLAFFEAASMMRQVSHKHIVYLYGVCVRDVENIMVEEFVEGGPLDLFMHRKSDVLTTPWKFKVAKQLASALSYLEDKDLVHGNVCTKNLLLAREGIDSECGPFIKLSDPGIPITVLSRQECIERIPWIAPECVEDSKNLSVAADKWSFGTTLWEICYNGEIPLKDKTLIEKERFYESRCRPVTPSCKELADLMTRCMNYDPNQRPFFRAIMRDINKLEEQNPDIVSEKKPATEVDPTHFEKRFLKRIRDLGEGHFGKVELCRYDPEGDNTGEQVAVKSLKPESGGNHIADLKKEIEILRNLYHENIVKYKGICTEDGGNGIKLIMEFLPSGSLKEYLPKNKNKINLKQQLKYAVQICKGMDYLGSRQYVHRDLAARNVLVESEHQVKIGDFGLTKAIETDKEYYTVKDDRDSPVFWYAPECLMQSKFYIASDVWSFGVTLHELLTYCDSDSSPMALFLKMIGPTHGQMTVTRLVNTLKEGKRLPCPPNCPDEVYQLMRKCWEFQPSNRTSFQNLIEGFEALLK
Sequence of Human Tyk2 kinase domain (P29597 886-1187): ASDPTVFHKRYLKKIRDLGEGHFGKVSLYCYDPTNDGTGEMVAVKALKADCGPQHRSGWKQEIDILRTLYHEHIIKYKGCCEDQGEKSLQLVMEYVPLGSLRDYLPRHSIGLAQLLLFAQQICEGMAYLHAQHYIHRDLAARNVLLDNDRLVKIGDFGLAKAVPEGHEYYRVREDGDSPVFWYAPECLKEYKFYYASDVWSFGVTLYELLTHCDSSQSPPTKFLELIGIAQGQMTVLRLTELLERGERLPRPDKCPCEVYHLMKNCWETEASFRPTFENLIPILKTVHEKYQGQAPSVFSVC

Row | SMILES | IC50 (Human Tyk2 kinase domain) [nM] | IC50 (JAK3) [nM] | IC50 (JAK1; [1]) [nM] | IC50 (JAK2) [nM] | IC50 (JAK1) [nM]
1 | CC(C)C[C@@H](C)n1cc(-c2nc(-c3cnn(C[C@H](O)CO)c3)cn3nccc23)cn1 [Example 78, (S)-3-(4-(4-(1-((R)-4-methylpentan-2-yl)-1H-pyrazol-4-yl)pyrazolo[1,5-a]pyrazin-6-yl)-1H-pyrazol-1-yl)propane-1,2-diol] | 100 to 1000 | 1000 to 10000 | 1000 to 10000 | 100 to 1000 | –
2 | CCC(CC)n1cc(-c2nc(-c3cnn(CC(O)C(C)(C)C)c3)cn3nccc23)cn1 (stereo not drawn) [Example 112, 3,3-dimethyl-1-(4-(4-(1-(pentan-3-yl)-1H-pyrazol-4-yl)pyrazolo[1,5-a]pyrazin-6-yl)-1H-pyrazol-1-yl)butan-2-ol] | 100 to 1000 | 1000 to 10000 | – | 100 to 1000 | 1000 to 10000
3 | CC[C@@H](C)n1cc(-c2nc(-c3cnn(C[C@@H](O)CO)c3)cn3nccc23)cn1 [Example 69, (R)-3-(4-(4-(1-((R)-sec-butyl)-1H-pyrazol-4-yl)pyrazolo[1,5-a]pyrazin-6-yl)-1H-pyrazol-1-yl)propane-1,2-diol] | 100 to 1000 | 1000 to 10000 | 1000 to 10000 | 100 to 1000 | –
4 | CCC(CO)n1cc(-c2nc(-c3cnn(C)c3)cn3nccc23)cn1 (stereo not drawn) [Example 45, 2-(4-(6-(1-methyl-1H-pyrazol-4-yl)pyrazolo[1,5-a]pyrazin-4-yl)-1H-pyrazol-1-yl)butan-1-ol] | 1000 to 10000 | 1000 to 10000 | – | 1000 to 10000 | 1000 to 10000
5 | CCC(CCO)n1cc(-c2nc(-c3cnn(C)c3)cn3nccc23)cn1 (stereo not drawn) [Example 47, 3-(4-(6-(1-methyl-1H-pyrazol-4-yl)pyrazolo[1,5-a]pyrazin-4-yl)-1H-pyrazol-1-yl)pentan-1-ol] | 1000 to 10000 | 1000 to 10000 | – | 1000 to 10000 | 1000 to 10000
6 | CC[C@@H](C)n1cc(-c2nc(-c3cnn(C[C@H](O)CO)c3)cn3nccc23)cn1 [Example 71, (S)-3-(4-(4-(1-((R)-sec-butyl)-1H-pyrazol-4-yl)pyrazolo[1,5-a]pyrazin-6-yl)-1H-pyrazol-1-yl)propane-1,2-diol] | 100 to 1000 | 1000 to 10000 | 1000 to 10000 | 100 to 1000 | –
7 | CCC(CC)n1cc(-c2nc(-c3cnn(C[C@@H](O)CNC)c3)cn3nccc23)cn1 [Example 102, (S)-1-(methylamino)-3-(4-(4-(1-(pentan-3-yl)-1H-pyrazol-4-yl)pyrazolo[1,5-a]pyrazin-6-yl)-1H-pyrazol-1-yl)propan-2-ol] | 100 to 1000 | 1000 to 10000 | 1000 to 10000 | 10 to 100 | –
8 | CCC(CC)n1cc(-c2nc(-c3cnn(C[C@@H](CN)OC)c3)cn3nccc23)cn1 (single isomer, unassigned) [Example 148] | 100 to 1000 | 1000 to 10000 | – | 100 to 1000 | 1000 to 10000
9 | OC[C@H](O)Cn1cc(-c2cn3nccc3c(-c3cnn(C(C4CC4)C4CC4)c3)n2)cn1 [Example 216, (R)-3-(4-(4-(1-(dicyclopropylmethyl)-1H-pyrazol-4-yl)pyrazolo[1,5-a]pyrazin-6-yl)-1H-pyrazol-1-yl)propane-1,2-diol] | 100 to 1000 | 1000 to 10000 | – | 100 to 1000 | 1000 to 10000
10 | CCC(CC)n1cc(-c2nc(-c3cnn(C(CO)CO)c3)cn3nccc23)cn1 [Example 81, 2-(4-(4-(1-(pentan-3-yl)-1H-pyrazol-4-yl)pyrazolo[1,5-a]pyrazin-6-yl)-1H-pyrazol-1-yl)propane-1,3-diol] | 10 to 100 | 1000 to 10000 | – | 10 to 100 | 100 to 1000
11 | CCC(CC)n1cc(-c2nc(-c3cnn(C4CN(C(=O)C(=O)N(C)C)C4)c3)cn3nccc23)cn1 [Example 182, N,N-dimethyl-2-oxo-2-(3-(4-(4-(1-(pentan-3-yl)-1H-pyrazol-4-yl)pyrazolo[1,5-a]pyrazin-6-yl)-1H-pyrazol-1-yl)azetidin-1-yl)acetamide] | 10 to 100 | 1000 to 10000 | – | 10 to 100 | 100 to 1000
12 | C[C@H](CC(F)(F)F)n1cc(-c2nc(-c3cnn(C[C@@H](O)CO)c3)cn3nccc23)cn1 [Example 194, (R)-3-(4-(4-(1-((R)-4,4,4-trifluorobutan-2-yl)-1H-pyrazol-4-yl)pyrazolo[1,5-a]pyrazin-6-yl)-1H-pyrazol-1-yl)propane-1,2-diol hydrochloride] | 100 to 1000 | 1000 to 10000 | 1000 to 10000 | 100 to 1000 | –

More lines, now with the values ahead:

Row | IC50 (Human Tyk2 kinase domain) [nM] | IC50 (JAK3) [nM] | IC50 (JAK1; [1]) [nM] | IC50 (JAK2) [nM] | IC50 (JAK1) [nM] | SMILES
13 | 10 to 100 | 100 to 1000 | 10 to 100 | 10 to 100 | – | CCC(c1ccccc1)n1cc(-c2nc(-c3cnn(C[C@@H](O)CO)c3)cn3nccc23)cn1 (stereo partly drawn) [Example 66, (2R)-3-(4-(4-(1-(1-phenylpropyl)-1H-pyrazol-4-yl)pyrazolo[1,5-a]pyrazin-6-yl)-1H-pyrazol-1-yl)propane-1,2-diol]
14 | 10 to 100 | 1000 to 10000 | – | 10 to 100 | 100 to 1000 | CCC(CC)n1cc(-c2nc(-c3cnn(C[C@](C)(O)CO)c3)cn3nccc23)cn1 (single isomer, unassigned) [Example 203]
15 | 10 to 100 | 1000 to 10000 | – | 10 to 100 | 100 to 1000 | CCC(CC)n1cc(-c2nc(-c3cnn(C[C@@H](O)CC)c3)cn3nccc23)cn1 [Example 114, (S)-1-(4-(4-(1-(pentan-3-yl)-1H-pyrazol-4-yl)pyrazolo[1,5-a]pyrazin-6-yl)-1H-pyrazol-1-yl)butan-2-ol]
16 | 10 to 100 | 1000 to 10000 | 100 to 1000 | 10 to 100 | – | CCC(CC)n1cc(-c2nc(-c3cnn(CC[C@H](O)CO)c3)cn3nccc23)cn1 [Example 62, (S)-4-(4-(4-(1-(pentan-3-yl)-1H-pyrazol-4-yl)pyrazolo[1,5-a]pyrazin-6-yl)-1H-pyrazol-1-yl)butane-1,2-diol]
17 | 10 to 100 | 1000 to 10000 | – | 10 to 100 | 100 to 1000 | CCC(CC)n1cc(-c2nc(-c3cnn(C[C@H]4COCCN4)c3)cn3nccc23)cn1 [Example 30, (S)-3-((4-(4-(1-(pentan-3-yl)-1H-pyrazol-4-yl)pyrazolo[1,5-a]pyrazin-6-yl)-1H-pyrazol-1-yl)methyl)morpholine]
18 | 10 to 100 | 1000 to 10000 | – | 10 to 100 | 1000 to 10000 | CCC[C@@H](C)n1cc(-c2nc(-c3cnn(C(CO)CO)c3)cn3nccc23)cn1 [Example 83, (R)-2-(4-(4-(1-(pentan-2-yl)-1H-pyrazol-4-yl)pyrazolo[1,5-a]pyrazin-6-yl)-1H-pyrazol-1-yl)propane-1,3-diol]
19 | 10 to 100 | 1000 to 10000 | 100 to 1000 | 100 to 1000 | – | CCC(CC)n1cc(-c2nc(-c3cnn(C[C@H](O)CO)c3)cn3nccc23)cn1 [Example 55, (S)-3-(4-(4-(1-(pentan-3-yl)-1H-pyrazol-4-yl)pyrazolor[1,5-a]pyrazin-6-yl)-1H-pyrazol-1-yl)propane-1,2-diol]
20 | 10 to 100 | 1000 to 10000 | – | 10 to 100 | 10 to 100 | CCC(CC)n1cc(-c2nc(-c3cnn(CCNC4CC4)c3)cn3nccc23)cn1 [Example 134, N-(2-(4-(4-(1-(pentan-3-yl)-1H-pyrazol-4-yl)pyrazolo[1,5-a]pyrazin-6-yl)-1H-pyrazol-1-yl)ethyl)cyclopropanamine trifluoroacetate]
21 | 10 to 100 | 1000 to 10000 | – | 10 to 100 | 1000 to 10000 | CCC(CC)n1cc(-c2nc(-c3cnn(CCN4CCOCC4)c3)cn3nccc23)cn1 [Example 3, 4-(2-(4-(4-(1-(pentan-3-yl)-1H-pyrazol-4-yl)pyrazolo[1,5-a]pyrazin-6-yl)-1H-pyrazol-1-yl)ethyl)morpholine]
22 | 10 to 100 | 1000 to 10000 | – | 10 to 100 | 10 to 100 | CC[C@H](C)n1cc(-c2nc(-c3cnn(C(CO)CO)c3)cn3nccc23)cn1 [Example 84, (S)-2-(4-(4-(1-(sec-butyl)-1H-pyrazol-4-yl)pyrazolo[1,5-a]pyrazin-6-yl)-1H-pyrazol-1-yl)propane-1,3-diol]
23 | 10 to 100 | 1000 to 10000 | 10 to 100 | 10 to 100 | – | CCC(CC)n1cc(-c2nc(-c3cnn(C[C@@H](C)CO)c3)cn3nccc23)cn1 [Example 14, (R)-2-methyl-3-(4-(4-(1-(pentan-3-yl)-1H-pyrazol-4-yl)pyrazolo[1,5-a]pyrazin-6-yl)-1H-pyrazol-1-yl)propan-1-ol]
24 | 10 to 100 | 1000 to 10000 | – | 10 to 100 | 1000 to 10000 | CCC(CC)n1cc(-c2nc(-c3cnn(C[C@H](O)CCO)c3)cn3nccc23)cn1 (single isomer, unassigned) [compound 201]
